Experimental findings from US10973861B2, “Compositions and methods” (priority 2013, dated 2021) are described below.

The test system of the test is C. difficile. The experiment in a line: Mouse model of C. difficile infection, bacterial compositions given by oral gavage on day −1 (Example 1). Conditions: positive control, oral gavage on days −1 to 4. The format is in vivo, mice.

In the case of `CN[C@H](CC(C)C)C(=O)N[C@H]1C(=O)N[C@@H](CC(N)=O)C(=O)N[C@H]2C(=O)N[C@H]3C(=O)N[C@H](C(=O)N[C@H](C(=O)O)c4cc(O)cc(O)c4-c4cc3ccc4O)[C@H](O)c3ccc(c(Cl)c3)Oc3cc2cc(c3O[C@@H]2O[C@H](CO)[C@@H](O)[C@H](O)[C@H]2O[C@H]2C[C@](C)(N)[C@H](O)[C@H](C)O2)Oc2ccc(cc2Cl)[C@H]1O` [Vancomycin], the “weight loss, clinical signs of disease, and C. difficile shedding (in words)” value is given as “protects against these outcomes”.
